Experiment in all cases: relative viability (nuclei count vs DMSO), 5 days (fraction); higher = more cells survive
Compound in test [1]: COc1cccc2cc(-c3nc([C@H]4CC[C@H](C(=O)O)CC4)n4ncnc(N)c34)[nH]c12 [OSI-027] + Nc1nc2[nH]cc(CCc3ccc(C(=O)N[C@@H](CCC(=O)O)C(=O)O)cc3)c2c(=O)[nH]1 [Pemetrexed] (partner 0.2 µM)
Summed up:
(§1)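 For relative viability, nuclei counts in treated wells were divided by those in vehicle wells. Lung cancer cell lines had been pin-tool dosed in 1536-well plates the day after seeding and cultured for 5 days, then fixed and stained in one step (final 0.05% Triton X-100, 1% formaldehyde, 1 ug/ml Hoechst) and imaged at 4×. Doses were one drug alone or a fixed anchor-drug dose plus five library-drug doses (not always all listed) in √10 steps, and values are duplicate-plate medians.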

Compound in test [2]: CCCS(=O)(=O)Nc1ccc(F)c(C(=O)c2c[nH]c3ncc(-c4ccc(Cl)cc4)cc23)c1F [Vemurafenib] + Nc1nc2[nH]cc(CCc3ccc(C(=O)N[C@@H](CCC(=O)O)C(=O)O)cc3)c2c(=O)[nH]1 [Pemetrexed] (partner 0.2 µM)
Summed up: as §1

Compound in test [3]: COc1cccc2cc(-c3nc([C@H]4CC[C@H](C(=O)O)CC4)n4ncnc(N)c34)[nH]c12 [OSI-027] + COc1cc2c(Oc3ccc(NC(=O)C4(C(=O)Nc5ccc(F)cc5)CC4)cc3F)ccnc2cc1OCCCN1CCOCC1 [Foretinib] (partner 0.25 µM)
Summed up:
as §1

Compound in test [4]: Cc1nc(NC(=O)N2CCC[C@H]2C(N)=O)sc1-c1ccnc(C(C)(C)C(F)(F)F)c1 [Alpelisib] + COc1cccc2cc(-c3nc([C@H]4CC[C@H](C(=O)O)CC4)n4ncnc(N)c34)[nH]c12 [OSI-027] (partner 0.5 µM)
Summed up: as §1

As for UMC-11, the relative viability in test [1] (first compound 0.01 µM) worked out at 0.994; in test [1] (first compound 0.03162 µM), 0.77; in test [1] (first compound 0.1 µM), 0.658; in test [1] (first compound 0.3162 µM), 0.585; in test [1] (first compound 1 µM) it was 0.444; in test [2] (first compound 0.03162 µM), 0.876. Moreover, the relative viability in test [2] (first compound 0.1 µM) came to 0.662; in test [2] (first compound 0.3162 µM) it was 0.717; in test [2] (first compound 1 µM), 0.707; in test [3] (first compound 0.01 µM), 0.903; in test [3] (first compound 0.03162 µM) it was 0.866; in test [3] (first compound 0.1 µM), 0.77. Further, the relative viability in test [3] (first compound 0.3162 µM) came out at 0.671; in test [3] (first compound 1 µM), 0.444; in test [4] (first compound 0.04 µM), 0.473; in test [4] (first compound 0.1265 µM), 0.464; in test [4] (first compound 0.4 µM), 0.502; in test [4] (first compound 1.265 µM), 0.438. For the same cell line, the relative viability in test [4] (first compound 4 µM) was determined as 0.462.

Source of the values: the supplement of paper PMC10307832.
